# Data reported in patent US7435837B2, “Dihydrobenzofuranyl alkanamine derivatives and methods for using same” (Wyeth, priority 2003, dated 2008).
# Biological target: T1, human 5-hydroxytryptamine-2C (h5-HT2C) receptor (Homo sapiens, UniProt P28335)
# T1 construct: expressed in transfected cells; host or cells: CHO (Chinese Hamster Ovary) cells; membranes
# T1 sequence (P28335 33-458): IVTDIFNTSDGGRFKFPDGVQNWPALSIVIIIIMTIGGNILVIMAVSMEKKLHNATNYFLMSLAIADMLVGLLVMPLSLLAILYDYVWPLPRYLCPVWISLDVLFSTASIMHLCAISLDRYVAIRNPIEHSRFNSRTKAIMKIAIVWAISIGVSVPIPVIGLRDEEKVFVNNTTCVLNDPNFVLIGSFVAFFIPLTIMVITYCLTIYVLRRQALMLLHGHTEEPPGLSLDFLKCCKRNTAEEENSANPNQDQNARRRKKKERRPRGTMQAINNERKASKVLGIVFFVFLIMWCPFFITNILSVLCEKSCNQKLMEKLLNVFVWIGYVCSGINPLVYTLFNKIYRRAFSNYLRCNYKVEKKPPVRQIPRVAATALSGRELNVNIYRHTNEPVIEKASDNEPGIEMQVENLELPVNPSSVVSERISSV
# Experiment: [125I]DOI binding to membranes of CHO cells expressing the human 5-HT2C receptor
# Details: [125I]DOI radioligand, CHO cell membranes, room temperature 60 min; read-out: 5-HT2C Affinity Ki
row,Ki,SMILES
1,60 nM,"NCC1Cc2c(F)ccc(-c3ccccc3)c2O1 (racemic) [Example 98, (±)-1-(4-fluoro-7-phenyl-2,3-dihydro-1-benzofuran-2-yl)methanamine]"
2,26 nM,"COc1cc(Cl)cc2c1OC(CN)C2 (racemic) [Example 111, (±)-1-(5-chloro-7-methoxy-2,3-dihydro-1-benzofuran-2-yl)methanamine]"
3,55 nM,"CC1(CN)Cc2cc(Cl)cc(-c3ccccc3)c2O1 (racemic) [Example 112, (±)-1-(5-chloro-2-methyl-7-phenyl-2,3-dihydro-1-benzofuran-2-yl)methanamine]"
4,130 nM,"CC1(CN)Cc2cc(Cl)cc(-c3ccsc3)c2O1 (racemic) [Example 113, (±)-(5-chloro-2-methyl-7-thien-3-yl-2,3-dihydro-1-benzofuran-2-yl)methylamine]"
5,471 nM,"CC1(CN)Cc2cc(Cl)cc(-c3cccs3)c2O1 (racemic) [Example 114, (±)-(5-chloro-2-methyl-7-thien-2-yl-2,3-dihydro-1-benzofuran-2-yl)methylamine]"
6,263 nM,"CC(C)(C)/C=C/c1cccc2c1OC(CN)C2 (racemic) [Example 117, (±)-1-{7-[(1E)-3,3-dimethylbut-1-enyl]-2,3-dihydro-1-benzofuran-2-yl}methanamine]"
7,319 nM,"CC(C)(C)CCc1cccc2c1OC(CN)C2 (racemic) [Example 118, (±)-1-[7-(3,3-dimethylbutyl)-2,3-dihydro-1-benzofuran-2-yl]methanamine]"
8,78 nM,"NCC1Cc2cccc(/C=C/c3ccccc3)c2O1 (racemic) [Example 119, (±)-1-{7-[(E)-2-phenylvinyl]-2,3-dihydro-1-benzofuran-2-yl}methanamine]"
9,128 nM,"NCC1Cc2cccc(CCc3ccccc3)c2O1 (racemic) [Example 120, (±)-1-[7-(2-phenylethyl)-2,3-dihydro-1-benzofuran-2-yl]methanamine]"
10,276 nM,"Cc1cccc(C)c1-c1cccc2c1CC(CN)O2 (racemic) [Example 125, (±)-1-[4-(2,6-dimethylphenyl)-2,3-dihydro-1-benzofuran-2-yl]methanamine]"
11,326 nM,"NCC1Cc2cccc(Nc3ccccc3)c2O1 (racemic) [Example 173, (±)-N-[2-(aminomethyl)-2,3-dihydro-1-benzofuran-7-yl]-N-phenylamine]"
12,203 nM,"Cc1ccc(Nc2cccc3c2OC(CN)C3)cc1 (racemic) [Example 174, (±)-N-[2-(aminomethyl)-2,3-dihydro-1-benzofuran-7-yl]-N-(4-methylphenyl)amine]"
13,384 nM,"NCC1Cc2cccc(Nc3ccc(Cl)cc3)c2O1 (racemic) [Example 175, (±)-N-[2-(aminomethyl)-2,3-dihydro-1-benzofuran-7-yl]-N-(4-chlorophenyl)amine]"
14,488 nM,"COc1ccc(Nc2cccc3c2OC(CN)C3)cc1 (racemic) [Example 176, (±)-N-[2-(aminomethyl)-2,3-dihydro-1-benzofuran-7-yl]-N-(4-methoxyphenyl)amine]"
15,353 nM,"NCC1Cc2cccc(Nc3ccc(C(F)(F)F)cc3)c2O1 (racemic) [Example 177, (±)-N-[2-(aminomethyl)-2,3-dihydro-1-benzofuran-7-yl]-N-[4-(trifluoromethyl)phenyl]amine]"
16,310 nM,"NCC1Cc2cccc(Nc3ccc(F)cc3)c2O1 (racemic) [Example 178, (±)-N-[2-(aminomethyl)-2,3-dihydro-1-benzofuran-7-yl]-N-(4-fluorophenyl)amine]"
17,435 nM,"NCC1Cc2cccc(Nc3ccc(Cl)c(Cl)c3)c2O1 (racemic) [Example 179, (±)-N-[2-(aminomethyl)-2,3-dihydro-1-benzofuran-7-yl]-N-(3,4-dichlorophenyl)amine]"
18,290 nM,"Cc1ccc(Nc2cccc3c2OC(CN)C3)c(C)c1 (racemic) [Example 180, (±)-N-[2-(aminomethyl)-2,3-dihydro-1-benzofuran-7-yl]-N-(2,4-dimethylphenyl)amine]"
19,146 nM,"Cc1ccc(Nc2cccc3c2OC(CN)C3)cc1C (racemic) [Example 181, (±)-N-[2-(aminomethyl)-2,3-dihydro-1-benzofuran-7-yl]-N-(3,4-dimethylphenyl)amine]"
20,279 nM,"Cc1cccc(Nc2cccc3c2OC(CN)C3)c1 (racemic) [Example 182, (±)-N-[2-(aminomethyl)-2,3-dihydro-1-benzofuran-7-yl]-N-(3-methylphenyl)amine]"
21,178 nM,"NCC1Cc2cccc(Nc3cccc(F)c3)c2O1 (racemic) [Example 183, (±)-N-[2-(aminomethyl)-2,3-dihydro-1-benzofuran-7-yl]-N-(3-fluorophenyl)amine]"

row,Ki,SMILES
1,185 nM,"NCC1Cc2cccc(Nc3cccc(C(F)(F)F)c3)c2O1 (racemic) [Example 184, (±)-N-2-(aminomethyl)-N-[3-(trifluoromethyl)phenyl]-2,3-dihydro-1-benzofuran-7-amine]"
2,159 nM,"COc1ccc(Nc2cccc3c2OC(CN)C3)cc1C (racemic) [Example 185, (±)-N-[2-(aminomethyl)-2,3-dihydro-1-benzofuran-7-yl]-N-(4-methoxy-3-methylphenyl)amine]"
3,171 nM,"NCC1Cc2cccc(Nc3cc(F)cc(F)c3)c2O1 (racemic) [Example 186, (±)-N-[2-(aminomethyl)-2,3-dihydro-1-benzofuran-7-yl]-N-(3,5-difluorophenyl)amine]"
4,247 nM,"NCC1Cc2cccc(Nc3cccc(OC(F)(F)F)c3)c2O1 (racemic) [Example 187, (±)-N-[2-(aminomethyl)-2,3-dihydro-1-benzofuran-7-yl]-N-(3-trifluoromethoxy)phenyl]amine]"
5,579 nM,"Cc1ccc(Nc2cccc3c2OC(CN)C3)cc1Cl (racemic) [Example 188, (±)-N-[2-(aminomethyl)-2,3-dihydro-1-benzofuran-7-yl]-N-(3-chloro-4-methylphenyl)amine]"
6,363 nM,"NCC1Cc2cccc(Nc3cc(Cl)cc(Cl)c3)c2O1 (racemic) [Example 189, (±)-N-[2-(aminomethyl)-2,3-dihydro-1-benzofuran-7-yl]-N-(3,5-dichlorophenyl)amine]"
7,186 nM,"NCC1Cc2cccc(Nc3cccc(Cl)c3)c2O1 (racemic) [Example 190, (±)-N-[2-(aminomethyl)-2,3-dihydro-1-benzofuran-7-yl]-N-(3-chlorophenyl)amine]"
8,142 nM,"Cc1cc(C)cc(Nc2cccc3c2OC(CN)C3)c1 (racemic) [Example 192, (±)-N-[2-(aminomethyl)-2,3-dihydro-1-benzofuran-7-yl]-N-(3,5-dimethylphenyl)amine]"
9,246 nM,"NCC1Cc2cccc(Nc3ccc(F)c(Cl)c3)c2O1 (racemic) [Example 193, (±)-N-[2-(aminomethyl)-2,3-dihydro-1-benzofuran-7-yl]-N-(3-chloro-4-fluorophenyl)amine]"
10,127 nM,"NCC1Cc2cccc(Nc3ccccc3F)c2O1 (racemic) [Example 194, (±)-N-[2-(aminomethyl)-2,3-dihydro-1-benzofuran-7-yl]-N-(2-fluorophenyl)amine]"
11,108 nM,"NCC1Cc2cc(F)cc(-c3cccc(F)c3)c2O1 (racemic) [Example 196, (±)-{[5-fluoro-7-(3-fluorophenyl)-2,3-dihydro-1-benzofuran-2-yl]methyl}amine]"
12,63 nM,"COc1cccc(-c2cc(F)cc3c2OC(CN)C3)c1 (racemic) [Example 197, (±)-{[5-fluoro-7-(3-methoxyphenyl)-2,3-dihydro-1-benzofuran-2-yl]methyl}amine]"
13,36 nM,"NCC1Cc2cc(F)cc(-c3cncnc3)c2O1 (racemic) [Example 210, (±)-[(5-fluoro-7-pyrimidin-5-yl-2,3-dihydro-1-benzofuran-2-yl)methyl]amine]"
14,69 nM,"NCC1Cc2cc(Cl)cc(-c3ccc(F)c(Cl)c3)c2O1 (racemic) [Example 259, (±)-{[5-chloro-7-(3-chloro-4-fluorophenyl)-2,3-dihydro-1-benzofuran-2-yl]methyl}amine]"
15,1.1 nM,"CCc1cc2c(c(-c3ccccc3C)c1)OC(CN)C2 (racemic) [Example 305, (±)-{[5-ethyl-7-(2-methylphenyl)-2,3-dihydro-1-benzofuran-2-yl]methyl}amine]"
16,64 nM,"COc1ccccc1-c1cc(C(F)(F)F)cc2c1OC(CN)C2 (racemic) [Example 316, (±)-{[5-(trifluoromethyl)-7-(2-methoxyphenyl)-2,3-dihydro-1-benzofuran-2-yl]methyl}amine]"
17,84 nM,"NCC1Cc2cc(C(F)(F)F)cc(-c3ccccc3C(F)(F)F)c2O1 (racemic) [Example 317, (±)-{[5-(trifluoromethyl)-7-(2-(trifluoromethyl)phenyl)-2,3-dihydro-1-benzofuran-2-yl]methyl}amine]"
18,98 nM,"Cc1cccc(-c2cc(C(F)(F)F)cc3c2OC(CN)C3)c1 (racemic) [Example 318, (±)-{[5-(trifluoromethyl)-7-(3-methylphenyl)-2,3-dihydro-1-benzofuran-2-yl]methyl}amine]"
19,83 nM,"NCC1Cc2cc(C(F)(F)F)cc(-c3cccc(F)c3)c2O1 (racemic) [Example 319, (±)-{[5-(trifluoromethyl)-7-(3-fluorophenyl)-2,3-dihydro-1-benzofuran-2-yl]methyl}amine]"
20,107 nM,"NCC1Cc2cc(C(F)(F)F)cc(-c3cccc(Cl)c3)c2O1 (racemic) [Example 320, (±)-{[5-(trifluoromethyl)-7-(3-chlorophenyl)-2,3-dihydro-1-benzofuran-2-yl]methyl}amine]"
